This note sets out measurements from ChEMBL document CHEMBL1130892, “Novel cytokine release inhibitors. Part I: Triterpenes” (Bioorg Med Chem Lett, 1998).

Experiment [1] can be described thus: Inhibitory activity against LPS-stimulated 1L-1beta release by cultured human monocytes. The experiment is classed as functional.
The next experiment has as its target T1, Caspase-1 (Homo sapiens, UniProt P29466).
T1 sequence (P29466 whole entry): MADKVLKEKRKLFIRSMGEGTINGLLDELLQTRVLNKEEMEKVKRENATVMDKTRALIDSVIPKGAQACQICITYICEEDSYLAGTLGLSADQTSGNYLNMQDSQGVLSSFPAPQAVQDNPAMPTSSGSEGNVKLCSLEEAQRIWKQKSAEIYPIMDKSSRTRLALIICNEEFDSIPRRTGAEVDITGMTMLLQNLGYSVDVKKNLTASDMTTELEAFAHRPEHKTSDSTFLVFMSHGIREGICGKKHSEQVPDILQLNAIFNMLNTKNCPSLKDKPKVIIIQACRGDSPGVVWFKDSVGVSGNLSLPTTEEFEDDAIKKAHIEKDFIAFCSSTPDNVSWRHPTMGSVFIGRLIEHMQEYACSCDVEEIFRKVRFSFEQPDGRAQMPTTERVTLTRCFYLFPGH
Briefly: Inhibitory activity against IL-1 beta converting enzyme was evaluated.

For the next experiment, the system named is Rattus norvegicus. Kind of experiment: Compound was tested for reduction of streptococcal cell wall(SCW) in rats at a dose of 0.67 mg/kg. The format is functional.
Experiment [2] can be described thus: Inhibitory activity against LPS-stimulated IL1-beta release by cultured human monocytes at a concentration 1000 nM. The format is functional.

On to `CC1=C(O)C(=O)C=C2C1=CC=C1[C@@]2(C)CC[C@@]2(C)[C@@H]3C[C@@H](C)C(=O)C[C@]3(C)CC[C@]12C` [TINGENONE], for which the IC50 (in general, the point on the concentration scale where inhibition reaches its midpoint) in experiment [1] was 0.058 µM. `COC(=O)[C@]1(C)CC[C@]2(C)CC[C@]3(C)C4=CCc5c(cc(O)c(O)c5C)[C@]4(C)CC[C@@]3(C)[C@@H]2C1` [PRISTIMEROL] showed a concentration for half-maximal inhibition (IC50) in experiment [1] of 0.26 µM. Still for that read-out and setting: under `COC(=O)[C@]1(C)CC[C@]2(C)CC[C@]3(C)C4=CC=C5C(=CC(=O)C(O)=C5C)[C@]4(C)CC[C@@]3(C)[C@@H]2C1` [PRISTIMERIN] stands 0.056 µM; under `COC(=O)[C@]1(C)CC[C@]2(C)CC[C@]3(C)C4=CCc5c(cc(OC(C)=O)c(OC(C)=O)c5C)[C@]4(C)CC[C@@]3(C)[C@@H]2C1` [PRISTIMEROL DIACETATE], 0.079 µM. `O=C1C=CC(=O)C=C1` [BENZOQUINONE]: on Caspase-1, half-maximal inhibition (IC50) was put at 3 µM. Consider `COc1ccc2c(c1)c(CC(=O)O)c(C)n2C(=O)c1ccc(Cl)cc1` [INDOMETHACIN], for which the SCW reduction in the experiment with Rattus norvegicus is listed as 70%. For `CC1=C(O)C(=O)C=C2C1=CC=C1[C@@]2(C)CC[C@@]2(C)[C@@H]3C[C@](C)(C(=O)O)CC[C@]3(C)CC[C@]12C` [CELASTROL], in experiment [1], half-maximal inhibition (IC50) was put at 0.04 µM. In other words, the double-digit nanomolar range. For the compound `COC(=O)[C@]1(C)CC[C@]2(C)CC[C@]3(C)C4=CCc5c(cc(OC)c(OC)c5C)[C@]4(C)CC[C@@]3(C)[C@@H]2C1`, at 1 µM the inhibition in experiment [2] was 8%.
